From ChEMBL document CHEMBL3991601, “The target landscape of clinical kinase drugs” (Science, 2017)
The source made the active and inactive calls. Rule as the data show it, for most assays here: actives have a measured Kd and inactives only a lower limit.

Key:
[1] = target: Tyrosine-protein kinase Lyn (Homo sapiens, UniProt P07948)
[2] = target: T1, Serine/threonine-protein kinase ICK (Homo sapiens, UniProt Q9UPZ9)
T1 sequence (Q9UPZ9 whole entry): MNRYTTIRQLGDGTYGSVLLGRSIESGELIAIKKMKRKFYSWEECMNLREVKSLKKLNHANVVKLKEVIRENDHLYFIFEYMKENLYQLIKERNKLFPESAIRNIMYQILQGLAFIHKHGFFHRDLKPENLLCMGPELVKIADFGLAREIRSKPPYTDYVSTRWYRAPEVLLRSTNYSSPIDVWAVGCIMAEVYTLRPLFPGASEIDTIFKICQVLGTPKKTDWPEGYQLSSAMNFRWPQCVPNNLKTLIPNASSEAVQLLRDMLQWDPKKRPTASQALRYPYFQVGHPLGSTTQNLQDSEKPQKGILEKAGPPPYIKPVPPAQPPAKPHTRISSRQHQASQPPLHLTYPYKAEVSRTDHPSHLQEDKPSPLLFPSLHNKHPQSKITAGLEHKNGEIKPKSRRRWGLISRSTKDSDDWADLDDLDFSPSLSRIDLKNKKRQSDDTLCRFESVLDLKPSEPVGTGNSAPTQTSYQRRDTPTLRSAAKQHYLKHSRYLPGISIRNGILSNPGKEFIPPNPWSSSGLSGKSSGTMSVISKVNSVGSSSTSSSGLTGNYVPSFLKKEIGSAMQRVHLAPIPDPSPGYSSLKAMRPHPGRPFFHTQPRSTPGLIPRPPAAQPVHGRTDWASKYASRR

[3] = target: STE20-like serine/threonine-protein kinase (Homo sapiens, UniProt Q9H2G2)
STE20-like serine/threonine-protein kinase, sequence (Q9H2G2 whole entry): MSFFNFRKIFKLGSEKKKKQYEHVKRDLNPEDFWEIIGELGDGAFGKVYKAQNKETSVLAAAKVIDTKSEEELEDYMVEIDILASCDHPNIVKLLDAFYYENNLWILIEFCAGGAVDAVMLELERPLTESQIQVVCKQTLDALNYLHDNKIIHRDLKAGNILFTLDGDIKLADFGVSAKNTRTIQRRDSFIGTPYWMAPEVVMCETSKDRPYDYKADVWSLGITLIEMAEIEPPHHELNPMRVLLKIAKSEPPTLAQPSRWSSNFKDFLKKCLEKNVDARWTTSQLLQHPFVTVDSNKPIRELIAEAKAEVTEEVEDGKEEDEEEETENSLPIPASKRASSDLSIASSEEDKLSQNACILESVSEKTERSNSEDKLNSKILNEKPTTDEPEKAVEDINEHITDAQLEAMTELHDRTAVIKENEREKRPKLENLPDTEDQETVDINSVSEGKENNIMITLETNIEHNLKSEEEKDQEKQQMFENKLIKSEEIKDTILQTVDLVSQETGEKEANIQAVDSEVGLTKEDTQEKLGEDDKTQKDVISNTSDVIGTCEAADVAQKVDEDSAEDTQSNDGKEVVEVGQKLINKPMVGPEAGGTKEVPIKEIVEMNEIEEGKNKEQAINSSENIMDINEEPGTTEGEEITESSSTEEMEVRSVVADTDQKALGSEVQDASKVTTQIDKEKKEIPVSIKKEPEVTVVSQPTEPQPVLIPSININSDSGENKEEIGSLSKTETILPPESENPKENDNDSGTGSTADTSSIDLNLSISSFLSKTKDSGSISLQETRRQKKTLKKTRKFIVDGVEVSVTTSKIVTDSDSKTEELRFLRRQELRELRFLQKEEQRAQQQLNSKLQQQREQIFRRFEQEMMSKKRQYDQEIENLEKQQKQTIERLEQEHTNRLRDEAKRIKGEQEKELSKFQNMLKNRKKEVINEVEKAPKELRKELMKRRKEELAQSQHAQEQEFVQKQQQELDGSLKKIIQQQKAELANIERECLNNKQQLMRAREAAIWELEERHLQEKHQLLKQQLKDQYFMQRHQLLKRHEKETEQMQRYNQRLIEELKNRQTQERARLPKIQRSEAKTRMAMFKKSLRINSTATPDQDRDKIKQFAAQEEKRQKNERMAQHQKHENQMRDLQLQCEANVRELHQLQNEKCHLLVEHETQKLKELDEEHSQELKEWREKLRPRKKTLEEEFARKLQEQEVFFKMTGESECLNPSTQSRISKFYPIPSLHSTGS

[4] = target: T2, Cysteine--tRNA ligase, cytoplasmic (Homo sapiens, UniProt P49589)
T2 sequence (P49589 whole entry): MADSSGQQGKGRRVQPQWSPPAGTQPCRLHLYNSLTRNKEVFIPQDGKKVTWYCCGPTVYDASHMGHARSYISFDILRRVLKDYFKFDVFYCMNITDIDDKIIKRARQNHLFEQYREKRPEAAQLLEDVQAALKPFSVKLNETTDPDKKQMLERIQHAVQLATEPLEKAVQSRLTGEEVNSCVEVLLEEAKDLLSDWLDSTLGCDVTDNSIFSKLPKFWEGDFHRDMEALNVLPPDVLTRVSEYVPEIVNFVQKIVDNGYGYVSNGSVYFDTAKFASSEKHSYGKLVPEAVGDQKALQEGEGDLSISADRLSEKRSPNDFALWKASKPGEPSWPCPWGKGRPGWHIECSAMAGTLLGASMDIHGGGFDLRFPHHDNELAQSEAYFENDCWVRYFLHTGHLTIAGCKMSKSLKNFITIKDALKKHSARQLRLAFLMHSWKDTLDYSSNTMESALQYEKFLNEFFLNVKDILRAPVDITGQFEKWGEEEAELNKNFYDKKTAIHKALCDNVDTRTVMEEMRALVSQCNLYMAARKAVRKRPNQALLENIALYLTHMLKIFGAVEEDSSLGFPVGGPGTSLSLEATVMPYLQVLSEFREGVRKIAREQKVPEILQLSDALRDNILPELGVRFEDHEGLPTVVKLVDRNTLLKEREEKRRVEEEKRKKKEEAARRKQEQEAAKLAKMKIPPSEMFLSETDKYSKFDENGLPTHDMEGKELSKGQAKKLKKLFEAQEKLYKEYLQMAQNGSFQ

[5] = target: T3, Breakpoint cluster region protein (Homo sapiens, UniProt P11274)
T3 sequence (P11274 whole entry): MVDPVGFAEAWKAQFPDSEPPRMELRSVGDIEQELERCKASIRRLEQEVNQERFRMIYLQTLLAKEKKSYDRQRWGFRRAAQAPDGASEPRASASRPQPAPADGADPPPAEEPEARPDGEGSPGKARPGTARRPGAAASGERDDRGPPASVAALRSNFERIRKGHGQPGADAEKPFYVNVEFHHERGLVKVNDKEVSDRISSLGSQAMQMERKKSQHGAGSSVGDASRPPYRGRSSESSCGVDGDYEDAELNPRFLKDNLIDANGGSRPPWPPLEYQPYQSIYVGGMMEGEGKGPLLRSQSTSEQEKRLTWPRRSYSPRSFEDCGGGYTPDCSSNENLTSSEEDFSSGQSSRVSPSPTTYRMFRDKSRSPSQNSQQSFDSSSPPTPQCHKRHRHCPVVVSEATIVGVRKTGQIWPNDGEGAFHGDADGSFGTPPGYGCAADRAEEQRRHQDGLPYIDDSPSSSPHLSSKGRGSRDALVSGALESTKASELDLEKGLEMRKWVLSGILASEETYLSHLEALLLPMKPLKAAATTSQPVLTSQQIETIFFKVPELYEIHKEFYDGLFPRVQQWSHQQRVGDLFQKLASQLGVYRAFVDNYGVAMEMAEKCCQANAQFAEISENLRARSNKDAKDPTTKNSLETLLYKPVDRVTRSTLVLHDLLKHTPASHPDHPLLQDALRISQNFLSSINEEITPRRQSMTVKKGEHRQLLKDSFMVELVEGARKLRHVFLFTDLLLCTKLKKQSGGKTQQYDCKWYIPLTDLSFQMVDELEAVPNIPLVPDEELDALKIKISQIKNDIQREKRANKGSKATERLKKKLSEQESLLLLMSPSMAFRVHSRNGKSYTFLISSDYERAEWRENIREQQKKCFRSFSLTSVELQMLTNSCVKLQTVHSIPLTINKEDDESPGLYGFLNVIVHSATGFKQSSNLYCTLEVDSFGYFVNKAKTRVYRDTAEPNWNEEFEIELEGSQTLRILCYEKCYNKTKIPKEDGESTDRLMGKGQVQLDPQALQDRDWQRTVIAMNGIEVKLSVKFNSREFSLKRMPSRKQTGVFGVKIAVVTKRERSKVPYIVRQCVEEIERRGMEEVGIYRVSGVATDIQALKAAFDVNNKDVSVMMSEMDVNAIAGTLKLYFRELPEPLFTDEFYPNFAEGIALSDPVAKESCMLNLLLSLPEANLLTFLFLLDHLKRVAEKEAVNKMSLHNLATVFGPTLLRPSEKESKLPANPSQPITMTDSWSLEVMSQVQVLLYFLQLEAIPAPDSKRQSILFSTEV

[6] = target: Ras-related protein Rab-6A (Homo sapiens, UniProt P20340)
Ras-related protein Rab-6A, sequence (P20340 whole entry): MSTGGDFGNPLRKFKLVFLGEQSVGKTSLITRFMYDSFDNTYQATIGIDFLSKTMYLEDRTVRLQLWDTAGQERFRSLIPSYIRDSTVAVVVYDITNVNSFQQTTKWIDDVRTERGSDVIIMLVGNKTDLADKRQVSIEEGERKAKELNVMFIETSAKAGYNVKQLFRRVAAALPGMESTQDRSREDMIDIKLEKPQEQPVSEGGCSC

[7] = target: Serine/threonine-protein kinase 16 (Homo sapiens, UniProt O75716)
Serine/threonine-protein kinase 16, sequence (O75716 whole entry): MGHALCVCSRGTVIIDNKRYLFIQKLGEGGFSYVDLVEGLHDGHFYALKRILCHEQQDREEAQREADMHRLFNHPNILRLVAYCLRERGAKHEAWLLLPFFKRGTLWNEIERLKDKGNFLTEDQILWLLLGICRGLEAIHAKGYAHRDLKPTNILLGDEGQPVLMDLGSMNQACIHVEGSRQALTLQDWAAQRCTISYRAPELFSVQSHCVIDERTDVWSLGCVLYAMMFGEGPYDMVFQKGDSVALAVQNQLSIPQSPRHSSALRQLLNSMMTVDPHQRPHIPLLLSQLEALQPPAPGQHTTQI

[8] = target: Ribosomal protein S6 kinase alpha-3 (Homo sapiens, UniProt P51812)
Ribosomal protein S6 kinase alpha-3, sequence (P51812 whole entry): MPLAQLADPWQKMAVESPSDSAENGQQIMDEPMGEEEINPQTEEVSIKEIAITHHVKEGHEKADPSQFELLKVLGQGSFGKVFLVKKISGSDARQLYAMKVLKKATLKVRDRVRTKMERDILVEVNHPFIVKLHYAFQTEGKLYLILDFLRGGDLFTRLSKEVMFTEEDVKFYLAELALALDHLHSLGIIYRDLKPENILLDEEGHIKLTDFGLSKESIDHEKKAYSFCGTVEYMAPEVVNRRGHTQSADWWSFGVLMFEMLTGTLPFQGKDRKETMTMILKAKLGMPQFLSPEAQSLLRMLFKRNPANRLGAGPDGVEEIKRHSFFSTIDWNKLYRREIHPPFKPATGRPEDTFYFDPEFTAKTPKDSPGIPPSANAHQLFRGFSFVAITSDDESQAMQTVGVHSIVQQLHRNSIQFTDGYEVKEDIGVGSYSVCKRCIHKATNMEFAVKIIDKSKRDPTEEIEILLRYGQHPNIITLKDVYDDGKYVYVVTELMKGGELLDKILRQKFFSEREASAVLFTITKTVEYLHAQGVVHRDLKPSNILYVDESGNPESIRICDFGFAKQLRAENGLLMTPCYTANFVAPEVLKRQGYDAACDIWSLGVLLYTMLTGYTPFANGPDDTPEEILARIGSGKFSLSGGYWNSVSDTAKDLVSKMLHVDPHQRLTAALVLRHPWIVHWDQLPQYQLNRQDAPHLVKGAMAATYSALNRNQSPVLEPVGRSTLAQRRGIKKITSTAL
Also: in the data inactive means no Kd found up to 30 µM.

Tyrosine-protein kinase Lyn, sequence (P07948 whole entry): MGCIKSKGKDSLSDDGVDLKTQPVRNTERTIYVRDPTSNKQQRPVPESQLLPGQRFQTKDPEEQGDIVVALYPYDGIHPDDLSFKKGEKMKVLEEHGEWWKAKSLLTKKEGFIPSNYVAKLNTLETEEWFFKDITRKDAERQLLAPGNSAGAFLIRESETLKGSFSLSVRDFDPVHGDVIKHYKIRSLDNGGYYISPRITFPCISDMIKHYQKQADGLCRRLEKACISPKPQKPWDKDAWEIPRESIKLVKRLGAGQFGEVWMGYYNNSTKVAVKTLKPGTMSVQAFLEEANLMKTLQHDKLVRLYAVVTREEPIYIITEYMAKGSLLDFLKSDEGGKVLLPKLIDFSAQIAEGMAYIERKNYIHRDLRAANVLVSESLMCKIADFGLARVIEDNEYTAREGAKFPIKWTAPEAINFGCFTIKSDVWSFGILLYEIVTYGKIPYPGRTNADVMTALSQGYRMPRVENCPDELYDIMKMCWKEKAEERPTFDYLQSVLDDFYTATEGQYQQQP

SMILES	Kd [1]	Kd [2]	Kd [3]	Kd [4]	Kd [5]	Kd [6]	Kd [7]	Kd [8]
CC(=O)c1cnc2ccc(-c3cc(Cl)c(O)c(Cl)c3)nc2c1N[C@H]1CC[C@H](CN(C)C)CC1	0.121 µM (active)	> 30 µM (inactive)	0.113 µM (active)	> 30 µM (inactive)	0.014 µM (active)	> 30 µM (inactive)		
CCNC(=O)C#Cc1ccc2c(c1)NC(=O)/C2=C(\Nc1ccc(CN(C)C)cc1)c1ccccc1	0.097 µM (active)		1.49 µM (active)	> 30 µM (inactive)	> 30 µM (inactive)	> 30 µM (inactive)	> 30 µM (inactive)	0.734 µM (active)
C=CC(=O)N1CCC[C@H](n2c(=O)n(-c3ccc(Oc4ccccc4)cc3)c3c(N)ncnc32)C1	0.006 µM	> 30 µM (inactive)	> 30 µM (inactive)	> 30 µM (inactive)	> 30 µM (inactive)		> 30 µM (inactive)	> 30 µM (inactive)
COc1cc(Nc2ncc3c(n2)-c2ccc(Cl)cc2C(c2c(F)cccc2OC)=NC3)ccc1C(=O)O [ALISERTIB]	> 30 µM (inactive)	> 30 µM (inactive)		> 30 µM (inactive)	> 30 µM (inactive)	> 30 µM (inactive)	> 30 µM (inactive)	
CNC(=O)c1ccccc1Sc1ccc2c(/C=C/c3ccccn3)n[nH]c2c1 [AXITINIB]				> 30 µM (inactive)	0.188 µM (active)	> 30 µM (inactive)		
CC(C)(C)c1nc(-c2cccc(NS(=O)(=O)c3c(F)cccc3F)c2F)c(-c2ccnc(N)n2)s1 [DABRAFENIB]		> 30 µM (inactive)	> 30 µM (inactive)	> 30 µM (inactive)	> 30 µM (inactive)	> 30 µM (inactive)	> 30 µM (inactive)	
Cn1cc(C2=C(c3cn(C4CCN(Cc5ccccn5)CC4)c4ccccc34)C(=O)NC2=O)c2ccccc21 [ENZASTAURIN]				> 30 µM (inactive)	> 30 µM (inactive)	> 30 µM (inactive)		
COc1ncc(-c2ccc3nccc(-c4ccnnc4)c3c2)cc1NS(=O)(=O)c1ccc(F)cc1F [OMIPALISIB]	> 30 µM (inactive)	> 30 µM (inactive)	> 30 µM (inactive)		> 30 µM (inactive)	> 30 µM (inactive)	> 30 µM (inactive)	> 30 µM (inactive)
Cc1[nH]c(/C=C2\C(=O)Nc3ccccc32)c(C)c1CCC(=O)O [ORANTINIB]				> 30 µM (inactive)	> 30 µM (inactive)			
CO[C@H]1C[C@@H]2CC[C@@H](C)[C@@](O)(O2)C(=O)C(=O)N2CCCC[C@H]2C(=O)O[C@H]([C@H](C)C[C@@H]2CC[C@@H](OP(C)(C)=O)[C@H](OC)C2)CC(=O)[C@H](C)/C=C(\C)[C@@H](O)[C@@H](OC)C(=O)[C@H](C)C[C@H](C)/C=C/C=C/C=C/1C [RIDAFOROLIMUS]	> 30 µM (inactive)	> 30 µM (inactive)	> 30 µM (inactive)		> 30 µM (inactive)	> 30 µM (inactive)	> 30 µM (inactive)	> 30 µM (inactive)
N#CC[C@H](C1CCCC1)n1cc(-c2ncnc3[nH]ccc23)cn1 [RUXOLITINIB]				> 30 µM (inactive)	> 30 µM (inactive)			

Results, then the compound that gave them:

Kd [1]	Kd [2]	Kd [3]	Kd [4]	Kd [5]	Kd [6]	Kd [7]	Kd [8]	SMILES
	> 30 µM (inactive)	0.402 µM (active)	> 30 µM (inactive)	0.156 µM (active)	> 30 µM (inactive)	1.28 µM (active)		O=C(Nc1c[nH]nc1-c1nc2cc(CN3CCOCC3)ccc2[nH]1)NC1CC1 [AT-9283]
			> 30 µM (inactive)	> 30 µM (inactive)	> 30 µM (inactive)			C[C@@H](Oc1cc(-n2cnc3ccc(CN4CCN(C)CC4)cc32)sc1C(N)=O)c1ccccc1C(F)(F)F [GSK-461364]
> 30 µM (inactive)	> 30 µM (inactive)	> 30 µM (inactive)	> 30 µM (inactive)	> 30 µM (inactive)	> 30 µM (inactive)	> 30 µM (inactive)		CCn1cc(-c2ccnc3[nH]c(-c4cccc(CN(C)C)c4)cc23)c(-c2ccc(NC(=O)N(C)C)cc2)n1 [GSK-1070916]
> 30 µM (inactive)		> 30 µM (inactive)	> 30 µM (inactive)	> 30 µM (inactive)	> 30 µM (inactive)	> 30 µM (inactive)	> 30 µM (inactive)	CN(C[C@@H]1COCCO1)S(=O)(=O)Nc1ccc2ccc3ncc(-c4cnn(C)c4)cc3c(=O)c2c1 [MK-2461]
> 30 µM (inactive)	> 30 µM (inactive)		> 30 µM (inactive)	10.8 µM (active)	> 30 µM (inactive)			CC(=O)NCC(=O)N1[C@@H]2CC[C@H]1c1ccc(Nc3ncc(C(F)(F)F)c(NC4CCC4)n3)cc12 [PF-03814735]
			> 30 µM (inactive)	> 30 µM (inactive)	> 30 µM (inactive)			O=C(NOCCO)c1cc(CN2OCCCC2=O)c(F)c(F)c1Nc1ccc(I)cc1F [RO-4987655]
> 30 µM (inactive)	> 30 µM (inactive)	2.08 µM (active)		> 30 µM (inactive)	> 30 µM (inactive)	> 30 µM (inactive)	> 30 µM (inactive)	Cn1cc(-c2cnn3c(N)c(Br)c([C@@H]4CCCNC4)nc23)cn1 [SCH-900776]
0.357 µM (active)	> 30 µM (inactive)	1.35 µM (active)		0.133 µM (active)	> 30 µM (inactive)	0.849 µM (active)	6 µM (active)	CCS(=O)(=O)c1cccc(-c2cc(C(=O)NC3CCN(C)CC3)c(C)c3[nH]c4ncc(C)cc4c23)c1 [TAK-901]
> 30 µM (inactive)	> 30 µM (inactive)	> 30 µM (inactive)		> 30 µM (inactive)	> 30 µM (inactive)	> 30 µM (inactive)	> 30 µM (inactive)	C[C@@H](N)c1ccc(C(=O)Nc2ccnc3[nH]ccc23)cc1 [Y-39983]
